Columns and labels:
[1] = system: TG-induced cardiomyocytes apoptosis; test: Protection against TG-induced cardiomyocyte apoptosis (MTT); assay type: cell-based, Wistar sucking mice
Protocol: The isolation and culture of cardiomyocytes were performed by referring to the differential adhesion method (Kreider, A. Messing, H. Doan, S. U. Kim, R. P. Lisak and D. E. Pleasure, Enrichment of Schwann cell cultures from neonatal rat sciatic nerve by differential adhesion, Brain Res 2 (1981), pp. 433-444). Wistar sucking mice newborn within 24 h were used, sterilized at skin of ventrum with iodine tincture and ethanol, subjected to thoracotomy using scissors at subxiphoid median line with a deviation to left, heart was taken out after slant thoracotomy and placed in PBS precooled with ice; the heart was softly blown and beaten with 0.01M PBS to remove blood cells and other tissues, then cut into pieces with 0.5 mm^3 size, washed with 0.01 M PBS repeatedly for 2-3 times; the pieces were placed in conical flask, added with 4 ml of 0.125% pancretin, 1 ml of 0.1% collagenase II (final concentrations separately being 0.1% and 0.02%), shaken in 37° C. water bath for 10 min, the supernatant was discarded; then 4 ml of 0.125% pancretin and 1 ml of 0.1% collagenase II again, shaken in 37° C. water bath for digestion for 10 min, the supernatant was sucked and transferred to a centrifuge tube, and the supernatant was added with DMEM containing 10% FBS to terminate digestion; the step of shaking and digestion in water bath was repeated for 3-4 times, until the tissue pieces were completely digested; the collected cell suspension was centrifuged under 1000 rpm for 10 min, the supernatant was removed, then a culture medium was added for resuspension; the resuspended cells were inoculated in a cell culture flask, placed in CO2 incubator at 37° C. for incubation for 1.5 h, then the culture medium was sucked out, countered under microscope, then DMEM culture medium containing 10% FBS was used to adjust cell density, inoculated in an amount of 1×10^4 to a 96-well plate, placed in 5% CO2 incubator at 37° C. for 24 h, then half medium was replaced, a culture medium containing 0.1% Brdu was supplementally added; then the medium was replaced once per 48 h, and primary cardiomyocytes were obtained after 4 days of cultivation.
The isolated primary culture of cardiomyocytes was inoculated in an amount of 10^4 cells per well to a 96-well plate, and the volume of each well was 100 ul (marginal wells were filled with sterile PBS). […] The optical density (OD) value of each well was measured at wavelength of 550 nm by enzyme-linked immunoassay instrument, and each well was repeatedly measured for 5 times and the results were recorded. […]

[2] = system: primary cardiomyocytes; test: Measurement of cell inhibition rate (MTT) on normal primary cardiomyocytes; assay type: cell-based, neonatal Wistar rats
Protocol: The isolation and culture of cardiomyocytes were performed by referring to the differential adhesion method (Kreider, A. Messing, H. Doan, S. U. Kim, R. P. Lisak and D. E. Pleasure, Enrichment of Schwann cell cultures from neonatal rat sciatic nerve by differential adhesion, Brain Res 2 (1981), pp. 433-444). […]
The isolated primary culture of cardiomyocytes was inoculated in an amount of 10^4 cells per well to a 96-well plate, and the volume of each well was 100 ul (marginal wells were filled with sterile PBS). […] The optical density (OD) value of each well was measured at wavelength of 550 nm by enzyme-linked immunoassay instrument, and each well was repeatedly measured for 5 times and the results were recorded.

Question: For `O=C(/C=C/c1ccccc1)NC(NC(=O)Nc1cccc2cccnc12)C(Cl)(Cl)Cl` (stereo not shown) [Example 5, (2E)-3-phenyl-N-[1-(8-quinolylamino)formylamino-2,2,2-trichloroethyl]-2-acrylamide], which “Cardiomyocyte survival rate (%)” value ([1]; TG 0.4 uM + compound 0.3 μM, pretreatment 30 min before TG) is on record?
Answer: Its value is 79.3 ± 4.6%.

Question: And the “Cardiomyocyte survival rate (%)” value ([1]; TG 0.4 uM + compound 1 μM, pretreatment 30 min before TG)?
Answer: The value was 83.8 ± 8.3%.

Question: What about the “Cardiomyocyte survival rate (%)” value ([1]; TG 0.4 uM + compound 3 μM, pretreatment 30 min before TG) of the same compound?
Answer: The value was 84.2 ± 1.1%.

Question: Which results are given for `O=C(/C=C/c1ccccc1)NC(NC(=O)Nc1cccc2cccnc12)C(Cl)(Cl)Cl` (stereo not shown) [Example 1, (2E)-3-phenyl-N-[1-(8-quinolylamino)formylamino-2,2,2-trichloroethyl]-2-acrylamide]?
Answer: inhibition at 30 µM ([2]; Cardiomyocyte, 30 μM compound, 48 h, MTT, cell survival rate = 1 − cell inhibition rate): 9.57 ± 1.62%; inhibition at 300 µM ([2]; Cardiomyocyte, 300 μM compound, 48 h, MTT, cell survival rate = 1 − cell inhibition rate): 7.78 ± 3.42%; effect on survival rate of normal cardiomyocytes ([2]; concentration within 300 μM): no effect

Question: Which “Cardiomyocyte survival rate (%)” value ([1]; TG alone 0.4 uM (apoptosis inducer)) does the source give for `C/C=C(/C)C(=O)O[C@H]1C(C)=C2[C@H]([C@@H]1OC(=O)CCCCCCC)[C@@](C)(OC(C)=O)C[C@H](OC(=O)CCC)[C@@]1(O)[C@H]2OC(=O)[C@@]1(C)O` [TG, thapsigargin, reference compound] here?
Answer: The value was 59 ± 1.1%.
